# In PMC7144264 (Journal of Enzyme Inhibition and Medicinal Chemistry, 2020):
# Entries after “also recorded” stand apart in the source; their conditions may differ.
# Tests used:
# rat brain FAAH [1] = molecular target: T1, rat brain FAAH (Rattus norvegicus, UniProt P97612); assay: FAAH assay: hydrolysis of [3H]AEA by rat brain homogenates; assay type: biochemical; conditions: for IC50: 0.5 µM [3H]AEA, rat brain homogenates, read-out: IC50 for inhibition of the hydrolysis of [3H]AEA
# T1 construct: hydrolysis of 0.5 µM [^3H]AEA by rat brain homogenates; from tissue; host or cells: rat brain (minus cerebella), washed membrane homogenate
# T1 sequence (P97612 1-579): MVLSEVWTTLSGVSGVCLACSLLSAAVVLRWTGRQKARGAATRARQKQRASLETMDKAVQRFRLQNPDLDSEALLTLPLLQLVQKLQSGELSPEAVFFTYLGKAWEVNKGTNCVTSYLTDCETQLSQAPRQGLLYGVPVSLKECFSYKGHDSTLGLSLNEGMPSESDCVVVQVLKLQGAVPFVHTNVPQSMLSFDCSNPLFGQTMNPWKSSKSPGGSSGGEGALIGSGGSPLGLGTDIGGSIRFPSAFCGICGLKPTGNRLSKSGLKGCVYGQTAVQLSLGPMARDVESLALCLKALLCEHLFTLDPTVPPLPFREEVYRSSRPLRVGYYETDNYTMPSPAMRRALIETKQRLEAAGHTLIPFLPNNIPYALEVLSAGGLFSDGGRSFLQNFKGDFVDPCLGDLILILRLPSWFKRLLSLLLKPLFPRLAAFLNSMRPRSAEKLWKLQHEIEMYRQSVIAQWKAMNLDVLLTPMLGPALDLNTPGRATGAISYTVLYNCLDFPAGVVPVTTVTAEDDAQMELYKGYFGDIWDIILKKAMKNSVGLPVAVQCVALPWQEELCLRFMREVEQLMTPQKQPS
# Method: Frozen (−80 °C) brains (minus cerebella) from adult Wistar or Sprague-Dawley rats were thawed and homogenised in 20 mM HEPES, 1 mM MgCl2, pH 7.0. The homogenates were then centrifuged at ∼35000 x g for 20 min at 4 °C followed by washing (by recentrifugation and by resuspension in the buffer) twice before incubation at 37 °C for 15 min in order to hydrolyse all endogenous FAAH substrates. After a further centrifugation, pellets were resuspended in 50 mM Tris-HCl buffer, pH 7.4, containing 1 mM EDTA and 3 mM MgCl2, and frozen at −80 °C in aliquots until used for the assay. For the FAAH assay, test compounds, homogenates and [^3H]AEA (diluted with non-radioactive AEA to give a substrate concentration of 0.5 μM) in 10 mM Tris- HCl, 1 mM EDTA, pH 7.4, containing 1% w/v fatty acid-free bovine serum albumin were incubated for 10 min at 37 °C. Activated charcoal in 0.5 M HCl was added to adsorb the unmetabolized [^3H]AEA and the samples were mixed and left at r.t. for ∼30 min. Following centrifugation at 2000 g for 10 min, aliquots of the supernatants, containing the [^3H]ethanolamine produced by hydrolysis of [^3H]AEA, were analysed for tritium content by liquid scintillation spectroscopy with quench correction. Blank values were obtained by the use of buffer rather than homogenate.
# Data were expressed as % of vehicle (ethanol) control and analysed using the algorithm log(inhibitor) vs. response – variable slope (four parameters) built into the GraphPad Prism computer programme v8.3 for the Macintosh (GraphPad Software Inc., San Diego, CA). The programme reports 95% confidence limits (profile likelihood) for the IC50 values and these presented in the results.
# rat brain FAAH [2] = molecular target: T1, rat brain FAAH; conditions: removal of the methyl group at the C-2 carbon atom; cited from earlier work
# human recombinant COX-2 [3] = molecular target: T2, human recombinant COX-2 (Homo sapiens, UniProt P35354); assay: COX-2 assay, oxygen electrode (cyclooxygenation of AA, 2-AG or AEA); assay type: biochemical; design: purchased Cayman Chemical Co. 60122; conditions: for inhibition of AA cyclooxygenation by COX-2: 10 µM AA
# T2 sequence (P35354 18-604): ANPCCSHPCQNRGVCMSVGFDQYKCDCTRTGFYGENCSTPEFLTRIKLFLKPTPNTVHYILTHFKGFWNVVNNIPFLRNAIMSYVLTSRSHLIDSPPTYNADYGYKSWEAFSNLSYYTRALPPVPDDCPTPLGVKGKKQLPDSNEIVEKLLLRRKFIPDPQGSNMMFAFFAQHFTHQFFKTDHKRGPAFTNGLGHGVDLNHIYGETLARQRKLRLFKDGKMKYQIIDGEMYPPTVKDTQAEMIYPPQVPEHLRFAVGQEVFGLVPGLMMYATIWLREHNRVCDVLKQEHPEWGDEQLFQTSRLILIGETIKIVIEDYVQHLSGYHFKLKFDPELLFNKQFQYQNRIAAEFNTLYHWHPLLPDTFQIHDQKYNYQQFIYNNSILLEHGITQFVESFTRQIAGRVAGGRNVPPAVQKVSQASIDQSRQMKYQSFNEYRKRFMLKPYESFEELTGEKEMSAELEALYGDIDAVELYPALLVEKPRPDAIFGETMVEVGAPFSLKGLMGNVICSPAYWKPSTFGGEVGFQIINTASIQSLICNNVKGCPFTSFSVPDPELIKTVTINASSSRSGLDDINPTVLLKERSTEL
# Method: (§1) The assay was performed essentially according to the method of Meade et al[21]. An oxygen electrode chamber with integral stirring (Oxygraph System, Hansatech Instruments, King ´s Lynn, U.K.) was calibrated daily to ambient temperature and air pressure. The assay buffer contained 0.1 M Tris-HCl buffer pH 7.4, 1 μM haematin, 2 mM phenol, 5 mM EDTA, 10 μM substrate (AA or 2-AG) in a final assay volume was 2 ml. After addition of test compound, a baseline was established for 5 min before initiation of reaction by addition of 200 units ovine COX-1 or human recombinant COX-2. The change in oxygen consumption as a measurement of enzyme activity was monitored for approximately 5 min.
# rat brain FAAH [4] = molecular target: T1, rat brain FAAH; assay: FAAH assay: hydrolysis of [3H]AEA by rat brain homogenates; assay type: biochemical; conditions: kinetics of inhibition of rat FAAH, mixed-type model
# ovine COX-1 [5] = molecular target: T3, ovine COX-1 (Ovis aries, UniProt P05979); assay: COX-1 assay, oxygen electrode (cyclooxygenation of substrate); assay type: biochemical; design: purchased Cayman Chemical Co. 60100; conditions: 10 µM AA
# T3 sequence (P05979 25-600): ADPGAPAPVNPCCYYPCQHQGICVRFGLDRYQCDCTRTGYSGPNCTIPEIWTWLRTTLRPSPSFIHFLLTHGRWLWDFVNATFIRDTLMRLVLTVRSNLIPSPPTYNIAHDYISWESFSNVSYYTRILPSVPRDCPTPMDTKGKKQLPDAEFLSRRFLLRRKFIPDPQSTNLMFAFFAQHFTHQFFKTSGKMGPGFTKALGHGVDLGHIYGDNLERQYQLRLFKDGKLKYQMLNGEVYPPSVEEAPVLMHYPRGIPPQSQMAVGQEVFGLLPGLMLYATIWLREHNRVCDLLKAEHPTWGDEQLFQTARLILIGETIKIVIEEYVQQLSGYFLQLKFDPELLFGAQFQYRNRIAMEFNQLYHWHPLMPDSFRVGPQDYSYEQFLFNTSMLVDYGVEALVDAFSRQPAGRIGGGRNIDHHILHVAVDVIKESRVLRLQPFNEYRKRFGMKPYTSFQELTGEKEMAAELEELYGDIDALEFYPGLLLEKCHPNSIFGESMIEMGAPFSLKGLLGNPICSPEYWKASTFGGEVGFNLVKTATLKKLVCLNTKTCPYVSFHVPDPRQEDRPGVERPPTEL
# Method: as §1
# [6] = in vivo; cited from earlier work
# human recombinant COX-2 [7] = molecular target: T2, human recombinant COX-2; conditions: cited from earlier work
# ovine COX-1 [8] = molecular target: T3, ovine COX-1; conditions: read-out: concentration reducing the rate of cyclooxygenation to about half; COX-1, AA as substrate; cited from earlier work
# [9] = mouse; cited from earlier work
# COX = system: COX; design: method as in PMID 28535469; conditions: cited from earlier work
# FAAH = system: FAAH; design: method as in PMID 25757568; conditions: cited from earlier work
# COX-2 = system: COX-2; design: method as in PMID 25757568; conditions: cited from earlier work
# COX-1 = system: COX-1; design: method as in PMID 25757568; conditions: cited from earlier work
# [10] = design: method as in PMID 25757568; conditions: cited from earlier work
compound,measurement,setting,value
"Cc1ccccc1NC(=O)C(C)c1ccc(CC(C)C)cc1 (stereo not drawn) [Ibu-AM38, 2–(4-Isobutylphenyl)-N-(o-tolyl)propanamide]",IC50,rat brain FAAH [1],2000 nM
"CC(C)Cc1ccc(C(C)C(=O)Nc2ncccc2C(F)(F)F)cc1 (stereo not drawn) [Ibu-AM60, 2-(4-Isobutylphenyl)-N-(3-(trifluoromethyl)pyridin-2-yl)propanamide]",melting point,,112 to 114 °C
same,IC50,rat brain FAAH [1],360 nM
"CC(C)Cc1ccc(C(C)C(=O)Nc2ccccc2O)cc1 (stereo not drawn) [Ibu-AM59, N-(2-Hydroxyphenyl)-2-(4-isobutylphenyl)propanamide]",IC50,rat brain FAAH [1],8500 nM
"CC(C)Cc1ccc(C(C)C(=O)Nc2ncccc2Cl)cc1 (stereo not drawn) [Ibu-AM58, N-(3-Chloropyridin-2-yl)-2-(4-isobutylphenyl)propanamide]",IC50,rat brain FAAH [1],910 nM
Cc1cccnc1NC(=O)Cc1ccc(CC(C)C)cc1 [Ibufenac-AM1],reduction of FAAH inhibitory potency relative to Ibu-AM5,rat brain FAAH [2],roughly 60 fold
"CC(C)Cc1ccc(C(C)C(=O)Nc2ncccc2Br)cc1 (stereo not drawn) [Ibu-AM68, N-(3-Bromopyridin-2-yl)−2-(4-isobutylphenyl)propanamide]",inhibition of 2-AG cyclooxygenation by COX-2,"human recombinant COX-2 [3]; 10 µM compound, 10 µM 2-AG",greatly reduced; also recorded: almost completely inhibited
same,inhibition of AA cyclooxygenation by COX-2,human recombinant COX-2 [3]; 10 µM compound,did not inhibit
same,inhibition of AA cyclooxygenation by COX-2,human recombinant COX-2 [3]; 50 and 100 µM compound,did not inhibit
same,Ki,rat brain FAAH [4],260 nM
same,α value (ratio of the Ki intercept: Ki slope values),rat brain FAAH [4],4.9
same,IC50,rat brain FAAH [1],83 nM
same,mode of inhibition of FAAH,"rat brain FAAH [1]; 60 min preincubation, 20-fold dilution, kinetic experiments","reversible, mixed-type mechanism of inhibition; also recorded: reversible mixed inhibitor"
same,time-dependence of the inhibition,rat brain FAAH [1]; preincubation with homogenates for up to 60 min prior to addition of substrate,no time-dependence of the inhibition
same,inhibition of AA cyclooxygenation by COX-1,ovine COX-1 [5]; 10 µM compound,modest inhibition
same,inhibition of AA cyclooxygenation by COX-1,ovine COX-1 [5]; 50 and 100 µM compound,complete inhibition
"CC(C)Cc1ccc(C(C)C(=O)Nc2ncccc2I)cc1 (stereo not drawn) [Ibu-AM69, N-(3-Iodopyridin-2-yl)-2-(4-isobutylphenyl)propanamide]",IC50,rat brain FAAH [1],120 nM
"Cc1cc(O)ccc1NC(=O)C(C)c1ccc(CC(C)C)cc1 (stereo not drawn) [Ibu-AM66, N-(4-Hydroxy-2-methylphenyl)-2-(4-isobutylphenyl)propanamide]",melting point,,133 to 135 °C
same,IC50,rat brain FAAH [1],350 nM
Cc1cccnc1NC(=O)C1(c2ccc(CC(C)C)cc2)CC1 [Ibu-AM73],IC50,rat brain FAAH [1],4100 nM
2–(4-isobutylphenyl)-N-(3-methylpyridin-2-yl)propenamide [Ibu-AM5],ulcerogenic potency,[6],without appreciable ulcerogenic potency
same,effect upon COX-2 with AA as substrate,human recombinant COX-2 [7]; 100 µM Ibu-AM5,without effect
same,IC50,"human recombinant COX-2 [7]; read-out: concentration reducing the rate of cyclooxygenation to about half, COX-2, AEA as substrate",~3000 nM
same,IC50,ovine COX-1 [8],~50000 nM
same,"analgesic activity, acetic acid-induced visceral nociception",[9],analgesic activity
"CC(C)Cc1ccc(C(C)C(=O)Nc2ccc(O)cc2)cc1 (stereo not drawn) [Ibu-AM65, N-(4-Hydroxyphenyl)-2-(4-isobutylphenyl)propanamide]",IC50,rat brain FAAH [1],3800 nM
"Cc1cccnc1NC(=O)C(C)(C)c1ccc(CC(C)C)cc1 [Ibu-AM72, 2-(4-Isobutylphenyl)-2-methyl-N-(3-methylpyridin-2-yl)propanamide]",IC50,rat brain FAAH [1],1000 nM
"COc1ccc(NC(=O)C(C)c2ccc(CC(C)C)cc2)c(C)c1 (stereo not drawn) [Ibu-AM67, 2-(4-Isobutylphenyl)-N-(4-methoxy-2-methylphenyl)propanamide]",melting point,,100 to 102 °C
same,IC50,rat brain FAAH [1],7900 nM
N-(3-chloropyridin-2-yl)−2–(4-((2-(trifluoromethyl)pyridin-4-yl)amino)phenyl)propenamide [TPA-14],COX-inhibitory potency,COX,lacked COX-inhibitory potency
"CC(C)Cc1ccc(C(C)C(=O)Nc2ncccc2O)cc1 (stereo not drawn) [Ibu-AM70, N-(3-Hydroxypyridin-2-yl)-2-(4-isobutylphenyl)propenamide]",IC50,rat brain FAAH [1],2700 nM
"CCCCCCNC(=O)Oc1cccc(-c2ccc(C(C)C(=O)O)cc2F)c1 (racemic) [ARN2508, (±)−2-[3-fluoro-4-[3-(hexylcarbamoyloxy)phenyl]phenyl]propanoic acid]",IC50,FAAH,31 nM
same,IC50,COX-2,420 nM
same,IC50,COX-1,12 nM
same,anti-inflammatory effects in vivo,[10],produced anti-inflammatory effects in vivo
same,gastric irritation,[10]; in vivo,without causing gastric irritation
